Data taken from patent publication US20060009425A1, “Oral formulations of paricalcitol” (priority 2004, published 2006).

Experiments:
[1] = Phase 3 TIW study, safety (Example 6)
Experimental: Additionally, safety was assessed by the incidence of adverse events, the change from baseline in chemistry, hematology and urinalysis laboratory variables, the change from baseline in subject vital signs, and progressive changes in renal function observed via changes in eGFR.
All randomized subjects who received at least 1 dose of study drug were used in safety analyses. […] This comparison was performed using a Fisher's exact test. Secondary safety analyses were performed comparing changes/percent changes from baseline between the paricalcitol and placebo treatment groups using a one-way ANOVA with treatment group as the factor for the following variables: hematology, complete chemistry, and urinalysis variables; 24-hour urine collections, eGFR, urinary calcium/creatinine ratio, cardiovascular markers, and vital signs. Secondary safety analyses also consisted of an analysis of “treatment-emergent” adverse events (i.e., adverse events with an onset date on or after the date the first dose of study drug was taken). Adverse events were summarized by body system and COSTART term according to the COSTART V adverse event-coding dictionary. Comparisons of the percentage of subjects experiencing an adverse event between the paricalcitol and placebo treatment groups were performed using a Fisher's exact test.

[2] = tested on: serum parathyroid hormone (PTH) levels; assay: Phase 3 placebo-controlled TIW study, iPTH reduction (Example 7); format: in vivo, human
Excerpt: (§1) Methodology: This was a Phase 3, prospective, randomized, placebo-controlled, double-blind, 24-week Treatment Phase, multi-center study in CKD (Stages 3 and 4) subjects with elevated PTH levels (≧150 pg/mL). Subjects were randomized in an equal ratio (1:1) to 1 of 2 treatment groups: paricalcitol capsule (Group 1) and placebo (Group 2). Potential subjects underwent procedures to determine their baseline intact PTH (iPTH), calcium, and phosphorus levels for eligibility to receive treatment.
During the Treatment Phase, subjects were to self-administer study drug 3 times weekly, on Monday, Wednesday and Friday, for a total of 24 weeks. The initial dose was 2 or 4 mcg (depending on baseline iPTH levels). Procedures to be performed during the Treatment Phase included vital signs, chemistry and hematology, urinary pyridinoline, urinary deoxypyridinoline, serum bone-specific alkaline phosphatase, serum osteocalcin, urinalysis, spot urine for calcium/creatinine ratio, and recording of adverse events and concurrent medications. Serum iPTH, calcium, phosphorus, and albumin were measured every 2 weeks. Dose adjustments were to be made according to these chemistry results for iPTH, calcium, and phosphorus. Doses may have been increased in 2 mcg increments every 4 weeks.
Efficacy: The primary efficacy endpoint was the achievement of 2 consecutive ≧30% decreases from baseline iPTH levels. The secondary efficacy analyses include change and percent change from baseline analyses in iPTH and change from baseline analyses in biochemical bone markers.
(§2) The Intent-To-Treat population (Full Analysis Set) was defined as all randomized subjects with a baseline iPTH and at least 2 on-treatment iPTH measurements. This population was used in the primary efficacy analysis.

[3] = Phase 3 TIW study, safety (Example 7); format: in vivo, human
Experimental: Safety: Safety was assessed through an evaluation of clinically meaningful hypercalcemia (2 consecutive calcium results >10.5 mg/dL). Additionally, safety was assessed by the incidence of adverse events, the change from baseline in chemistry, hematology and urinalysis laboratory variables, the change from baseline in subject vital signs, and progressive changes in renal function observed via changes in eGFR.
All randomized subjects who received at least 1 dose of study drug were used in safety analyses. The primary safety analysis was a comparison between the paricalcitol and placebo treatment groups of the proportion of subjects achieving clinically meaningful hypercalcemia (2 consecutive calcium measurements >10.5 mg/dL). This comparison was performed using a Fisher's exact test. Secondary safety analyses were performed comparing changes/percent changes from baseline between the paricalcitol and placebo treatment groups using a one-way ANOVA with treatment group as the factor for the following variables: hematology, complete chemistry, and urinalysis variables; 24-hour urine collections, eGFR, urinary calcium/creatinine ratio, cardiovascular markers, and vital signs. Secondary safety analyses also consisted of an analysis of “treatment-emergent” adverse events (i.e., adverse events with an onset date on or after the date the first dose of study drug was taken). Adverse events were summarized by body system and COSTART term according to the COSTART V adverse event-coding dictionary. Comparisons of the percentage of subjects experiencing an adverse event between the Oral paricalcitol and placebo treatment groups were performed using a Fisher's exact test.

[4] = tested on: serum parathyroid hormone (PTH) levels; assay: Phase 3 placebo-controlled TIW study, iPTH reduction (Example 6); format: in vivo, human
Excerpt: as §1, with “Paricalcitol Capsule” for “paricalcitol capsule”
The study was performed in 4 parts: a Screening Visit, a Pre-Treatment Phase, a Treatment Phase, and a Follow-Up Phase. At the Screening Visit, subjects reviewed and signed the informed consent form prior to the conduct of any study-specific screening procedures. A spot urine sample was used to calculate calcium/creatinine ratio. A blood sample was drawn for iPTH, blood urea nitrogen (BUN), albumin and serum creatinine levels. […] The serum creatinine, BUN, and albumin values were used to calculate the subject's estimated glomerular filtration rate (eGFR) using a formula derived from the “Modification of Diet in Renal Disease” (MDRD) study. Subjects with a calculated eGFR of 15 to 60 mL/min were eligible to undergo Pre-Treatment Phase procedures. The Pre-Treatment Phase was 1 to 4 weeks. During this phase, subjects had 2 scheduled office visits. The office visits could have occurred at any time over a 4-week period but must have been at least 1 day apart. During these visits, subjects were to meet laboratory criteria regarding serum iPTH, calcium, and phosphorus levels. If the subject was unable to meet these criteria, he or she may have been re-screened once after 4 weeks. […] Subjects who satisfied inclusion and exclusion criteria after a minimum of 1 week in the Pre-Treatment Phase were eligible to enter the Treatment Phase. During the Treatment Phase, subjects were to self-administer study drug 3 times weekly, on Monday, Wednesday and Friday, for a total of 24 weeks. The initial dose was 2 or 4 mcg (depending on baseline iPTH levels). Procedures to be performed during the Treatment Phase included vital signs, chemistry and hematology, urinary pyridinoline, urinary deoxypyridinoline, serum bone-specific alkaline phosphatase, serum osteocalcin, urinalysis, spot urine for calcium/creatinine ratio, and recording of adverse events and concurrent medications. Serum iPTH, calcium, phosphorus, and albumin were measured every 2 weeks. Dose adjustments were to be made according to these chemistry results for iPTH, calcium, and phosphorus. Doses may have been increased in 2 mcg increments every 4 weeks. Dose reductions were to occur according to a protocol-specified algorithm. However, dosing could have been adjusted any time if, in the judgment of the Investigator, a risk to subject safety existed.
Efficacy: The primary efficacy endpoint was the achievement of 2 consecutive >30% decreases from baseline iPTH levels.
The secondary efficacy analyses include change and percent change from baseline analyses in iPTH and change from baseline analyses in biochemical bone activity markers.
as §2

With `C[C@H](/C=C/[C@H](C)C(C)(C)O)[C@H]1CC[C@H]2/C(=C/C=C3C[C@@H](O)C[C@H](O)C3)CCC[C@]12C` [Paricalcitol, 19-nor-1α,3β,25-trihydroxy-9,10-secoergosta-5(Z); 7(E),22(E)-triene] the safety and tolerability ([1]; CKD (Stages 3 and 4) subjects) was “safe and well tolerated”, the “adverse events considered not related to study drug administration” value ([1]; TIW, 24 weeks) was 85% and the “adverse events mild or moderate in severity” value ([1]; TIW, 24 weeks) was 88%. The “subjects with treatment-emergent adverse events” value ([1]; TIW, 24 weeks) was 79%, the “subjects reporting serious adverse events” value ([1]; Treatment and Follow-Up Phases) was 9 subjects and the deaths ([1]; cardiopulmonary arrest, considered not related to study drug) was 1 subject. The “adverse event incidence: constipation” value ([1]; in vivo) was 8%, the “adverse event incidence: depression” value ([1]; in vivo) was 8% and the “adverse event incidence: headache” value ([1]; in vivo) was 8%. The “adverse event incidence: hypertension” value ([1]; in vivo) was 8%, the “adverse event incidence: infection” value ([1]; in vivo) was 8% and the “adverse event incidence: pain” value ([1]; in vivo) was 10%. For the same compound, the “adverse event incidence: pharyngitis” value ([1]; in vivo) was 10%, the “adverse event incidence: rhinitis” value ([1]; in vivo) was 8% and the “adverse event incidence: vertigo” value ([1]; in vivo) was 8%. For the same compound, the “subjects terminated prematurely due to adverse events” value ([1]; in vivo) was 1 subjects, the “subjects who developed clinically meaningful hypercalcemia (at least 2 consecutive calcium values >10.5 mg/dL)” value ([1]; in vivo) was 1/38 and the “subjects with 4 consecutive ≧30% decreases from baseline in iPTH” value ([2]; 26/32, exploratory analysis) was 81%. The “subjects with 2 consecutive ≧30% decreases from baseline in iPTH” value ([2]; 29/32, TIW, 24 weeks, CKD Stages 3 and 4) was 91%, the “30% mean reduction in iPTH occurred by” value ([2]; TIW) was no more than 9 Week and the “mean change from baseline in iPTH at the Final Visit” value ([2]; TIW, 24 weeks) was -80.7 pg/mL. For the same compound, the “mean change from baseline in iPTH at the Last On-Treatment Visit” value ([2]; TIW, 24 weeks) was -83.1 pg/mL, the “percent decrease in iPTH at the Final Visit” value ([2]; TIW, 24 weeks) was 30.3% and the “percent decrease in iPTH at the Last On-Treatment Visit” value ([2]; TIW, 24 weeks) was 33.4%. For the same compound, the “maximum decrease from baseline in iPTH” value ([2]; observed at Week 17) was −48.2%, the safety and tolerability ([3]; CKD (Stages 3 and 4) subjects) was “safe and well tolerated” and the “adverse events considered not related to study drug administration” value ([3]; TIW, 24 weeks) was 81%. The “adverse events mild or moderate in severity” value ([3]; TIW, 24 weeks) was 96%, the “subjects with treatment-emergent adverse events” value ([3]; TIW, 24 weeks) was 76% and the “mean calcium values, range over scheduled visits” value ([3]; Treatment Phase) was 9.36 to 9.62 mg/dL. The “subjects reporting serious adverse events” value ([3]; Treatment and Follow-Up Phases) was 6 subjects, the “adverse event incidence: diarrhea” value ([3]; in vivo) was 9% and the “adverse event incidence: dizziness” value ([3]; in vivo) was 12%. The “adverse event incidence: edema” value ([3]; in vivo) was 9%, the “adverse event incidence: hypotension” value ([3]; in vivo) was 12% and the “adverse event incidence: uremia” value ([3]; in vivo) was 12%. For the same compound, the “serum calcium, mean change from baseline to Last On-Treatment Visit” value ([3]; in vivo) was 0.19 mg/dL, the “subjects terminated prematurely due to adverse events” value ([3]; in vivo) was 1 subjects and the “subjects who developed clinically meaningful hypercalcemia (at least 2 consecutive calcium values >10.5 mg/dL)” value ([3]; in vivo) was 1/33. For the same compound, the “eGFR, mean percent change from baseline to Final Visit” value ([3]; subjects who completed 24 weeks of treatment) was −16.61%, the “subjects with 4 consecutive ≧30% decreases from baseline in iPTH” value ([4]; 26/36, exploratory analysis) was 72% and the “subjects with 2 consecutive >30% decreases from baseline in iPTH” value ([4]; 33/36, TIW, 24 weeks, CKD Stages 3 and 4) was 92%. The “30% mean reduction in iPTH occurred by” value ([4]; TIW) was no more than 9 Week, the “mean change from baseline in iPTH at the Final Visit” value ([4]; TIW, 24 weeks) was -58.1 pg/mL and the “mean change from baseline in iPTH at the Last On-Treatment Visit” value ([4]; TIW, 24 weeks) was -95.7 pg/mL. For the same compound, the “percent decrease in iPTH at the Final Visit” value ([4]; TIW, 24 weeks) was 19.2%, the “percent decrease in iPTH at the Last On-Treatment Visit” value ([4]; TIW, 24 weeks) was 33.0% and the “maximum decrease from baseline in iPTH” value ([4]; observed at Week 19) was −46.0%.
